Key:
[1] = target: T1, tTA-45 (L170V) (Escherichia coli, UniProt P04483, L170V); assay: Inducer-dependent repression of luciferase activity by tTA-45, transient transfection in HeLa cells; format: cell-based
T1 construct: expressed in transfected cells; host or cells: HeLa cells, transient transfection
Protocol: One mutant that was isolated from this screen, tTA-45, was sequenced and found to carry an amino acid exchange at position 170 from a leucine to a valine (L170V). The induction efficiency of tTA-45 in response to varying concentrations of Tc or Dox was determined in transient transfection assays in HeLa cells. The inducer concentration leading to 50% repression of the luciferase activity (IC50) was determined and is described in Table 3 below.

[2] = target: T2, tTA (Wildtype) (Escherichia coli, UniProt P04483); assay: Inducer-dependent repression of luciferase activity by tTA, transient transfection in HeLa cells; format: cell-based
T2 construct: expressed in transfected cells; host or cells: HeLa cells, transient transfection
T2 sequence (P04483 whole entry, added parts left off): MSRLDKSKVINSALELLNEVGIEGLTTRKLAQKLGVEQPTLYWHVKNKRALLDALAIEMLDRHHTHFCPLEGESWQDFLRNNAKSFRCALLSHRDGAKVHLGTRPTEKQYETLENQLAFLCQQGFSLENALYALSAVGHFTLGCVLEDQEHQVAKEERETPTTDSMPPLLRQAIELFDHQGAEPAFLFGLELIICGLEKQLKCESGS

T1 sequence (P04483 other isoform, or with tags, fused parts or gaps L170V): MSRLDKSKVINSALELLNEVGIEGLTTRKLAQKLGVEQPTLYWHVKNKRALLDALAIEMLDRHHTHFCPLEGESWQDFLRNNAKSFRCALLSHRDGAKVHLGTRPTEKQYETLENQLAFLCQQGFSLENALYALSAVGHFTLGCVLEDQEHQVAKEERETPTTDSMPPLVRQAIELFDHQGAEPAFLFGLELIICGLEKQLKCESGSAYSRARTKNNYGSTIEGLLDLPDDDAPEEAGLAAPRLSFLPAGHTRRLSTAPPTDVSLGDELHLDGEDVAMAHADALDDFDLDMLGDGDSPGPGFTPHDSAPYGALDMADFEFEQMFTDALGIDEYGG

`C[C@H]1c2cccc(O)c2C(=O)C2=C(O)[C@]3(O)C(=O)C(C(N)=O)=C(O)[C@@H](N(C)C)[C@@H]3[C@@H](O)[C@@H]21` [Dox, doxycycline] showed an IC50 [1] of 11.3 nM and an IC50 [2] of 1.35 nM.
For `CN(C)[C@@H]1C(O)=C(C(N)=O)C(=O)[C@@]2(O)C(O)=C3C(=O)c4c(O)cccc4[C@@](C)(O)[C@H]3C[C@@H]12` [Tc, tetracycline], the IC50 [1] was 608 nM and the IC50 [2] was 6.75 nM.
